Laboratory results from patent US12528777B2, “Quinazolinones derivatives for treatment of non-alcoholic fatty liver disease, preparation and use thereof” (Council of Scientific and Industrial Research, priority 2020, dated 2026).

Legend:
HepG2 cells = experiment: Confocal microscopy: lipid droplets in oleate induced HepG2 cells; format: cell-based; set-up: key to Reduction in Lipid Droplets: + = slight or in insignificant; ++ = Moderate; +++ and ++++ = active; +++ and ++++ = active; +++++ = very active; details: for Reduction in Lipid Droplets: oleate induced HepG2 cells, score; for Number of lipid droplets: HepG2 cells, 250 μM oleate induction
Experimental: (§1) To select the compounds capable of inhibiting the ubiquitination of ATGL by COP1 by targeting the VP motif, confocal microscopy was performed with the provided molecules. If the compound was effective in inhibiting the interaction, there would be a reduction in the number of fat droplets in the cells after treatment. […] With this rationale in mind, HepG2 cells were induced to accumulate lipid droplets after treatment with 250 µM of oleate and 10 μM of the specific compounds were added. The potential of the compounds to bring about a reduction in the number of fat droplets was then checked by comparison with oleate induced cells by counting number of droplets of approximately 20 cells from each treatment and calculating the average number of lipid droplets of each cell. The selected compounds were then subjected to dose dependent treatments and the ones which could maintain its potency to reduce fat droplets at lower doses were then selected for western blot analysis. The compound which could reduce the number of fat droplets in the cells are expected to raise the levels of ATGL since they are likely to deter COP1 from ubiquitinating ATGL. This increase will be visible only in the protein level and gene expression is likely to remain unchanged since ubiquitination is a […] modification. Thus, western blot was performed to check ATGL levels in the cells with the selected molecules.
HepG2 cells were plated in confocal dishes (SPL, Genetix Biotech Asia Pvt. Ltd.). The cells were allowed to adhere and divide for 16 hours. 10 μM for initial screening and 10 nM, 20 nM, 50 nM, 100 nM, 200 nM, 500 nM, 1 μM and 5 μM for dose dependent assays of the compounds 9 and 107 were dissolved in DMSO and added to the cells. 250 μM of oleate was used for induction. BSA (Sigma Aldrich) was used as a negative control. Post 24 hours of treatment, media was decanted from the cells and washed with 1×PBS solution to remove any remnant. 200 μl of staining solution containing 200 ng/ml BODIPY (Invitrogen) and 25 µg/ml HOECKST342 (Invitrogen) were added to the cells and incubated at 37° C. for 30 minutes under dark conditions. Cells were washed 3 times with 1×PBS to remove excess stain. FLUOVIEW FV10i (Olympus) was used to visualise the cells.

ATGL = experiment: Western blot of ATGL level in HepG2 cells; format: cell-based; set-up: key to Increase in ATGL level: + = slight or in insignificant; ++ = Moderate; +++ and ++++ = active; +++ and ++++ = active; +++++ = very active; details: western blot; for Increase in ATGL level: HepG2 cells, score; for ATGL level in HepG2 cells: 24 hours, 10 μM screening or 50 nM-5 μM dose dependent
Experimental: as §1
HepG2 cells were treated with the compounds 9, 10, 11, 17, 18, 23, 24, 115, 123, 127, 139,107, 171, 179, 73, 187, 211, 215, 219, 223, 232, 238, 241, 244, 258, 299, 308, and 333a, (10 μM for initial screening and 50 nM, 100 nM, 200 nM, 500 nM, 1 μM and 5 μM for dose dependent assays) for 24 hours. After removing media from the cells, the wells were washed with 1×PBS twice to remove any remnant media. Cells were then lysed in lysis buffer containing 50 mM Tris-HCl (pH 7.4), 100 mM NaCl, 1 mM EDTA, 1 mM EGTA, 1% Triton X-100 and protease inhibitor cocktail (Millipore, Billierica, MA, USA). Following centrifugation at 20,000 g for 20 minutes, the protein solution was extracted from the cells. Protein was estimated using Bradford assay. Bradford's reagent (BioRad) was diluted in 1:4 ratio in double distilled water. 2 μl of protein sample was added to 100 μl of the reagent and absorbance was measured at 595 nm. […] of protein was diluted in lysis buffer. 1× loading buffer diluted from 5× stock containing 250 mM Tris-HCl (pH 6.8), 10% SDS, 50% glycerol, 0.1% bromophenol Blue and 10% β-mercaptoethanol was added. The protein samples were then heated at 95° C. for 10 minutes, cooled and centrifuged at 12,000 g for 2 minutes prior to loading.
For western blotting, the proteins were resolved in 10% SDS PAGE (discontinuous buffer system). 1× running buffer containing SDS, Tris Base and Glycine was used to run the gel at 80V for approximately 2 hours. Transfer was done using PVDF membrane (Millipore) having pore size of 0.45 μm. 1× transfer buffer containing Tris-Base, Glycine and 20% methanol was used for wet transfer. Transfer was done at 90V for 3 hours. Following transfer, the PVDF membrane containing the proteins were washed in 1×PBST comprising of 1×PBS and 1% Tween 20 (Sigma Aldrich). The membrane was then incubated for 1 hour at room temperature in 5% skim milk powder to block the non-specific sites. Following multiple washes with 1×PBST to wash away any remaining blocking buffer, the required primary antibody (COP1 [Bethyl Laboraties], ATGL [Cell Signalling Technology] or Actin[Cell Signalling Technology]) prepared with 1×PBST, 1% Bovine Serum Albumin and 0.04% Sodium Azide was added to the membrane and incubated overnight at 4° C. The next day, the membrane was again washed multiple times with 1×PBST to remove any unbound primary antibody. The membrane was then incubated with goat anti-rabbit secondary antibody (Genei) for 1 hour at room temperature and washed again for multiple times with 1×PBST. […]

Structure (SMILES): COCCn1cnc2ccc(NC(=O)Nc3cccc(NC(C)=O)c3)cc2c1=O [Compound 22, N-(3-(3-(3-(2-methoxyethyl)-4-oxo-3,4-dihydroquinazolin-6-yl)ureido)phenyl)acetamide]
- Reduction in Lipid Droplets (HepG2 cells): +
- Increase in ATGL level (ATGL): +

Structure (SMILES): COCCn1cnc2ccc(NC(=O)Nc3cccc(OC)c3)cc2c1=O [Compound 6, 1-(3-(2-methoxyethyl)-4-oxo-3,4-dihydroquinazolin-6-yl)-3-(3-methoxyphenyl)urea]
- Number of lipid droplets (HepG2 cells): reduction of lipid droplet
- Reduction in Lipid Droplets (HepG2 cells): ++++
- Increase in ATGL level (ATGL): ++++
- ATGL level in HepG2 cells (ATGL): increase in ATGL level

Structure (SMILES): COCCn1cnc2ccc(NC(=O)Nc3ccc(OC)cc3)cc2c1=O [Compound 40, 1-(3-(2-methoxyethyl)-4-oxo-3,4-dihydroquinazolin-6-yl)-3-(4-methoxyphenyl)urea]
- Reduction in Lipid Droplets (HepG2 cells): ++
- Increase in ATGL level (ATGL): ++++

Structure (SMILES): COCCn1cnc2ccc(NC(=O)Nc3cccc(-c4nc5ccccc5o4)c3)cc2c1=O [Compound 21, 1-(3-(benzo[d]oxazol-2-yl)phenyl)-3-(3-(2-methoxyethyl)-4-oxo-3,4-dihydroquinazolin-6-yl)urea]
- Reduction in Lipid Droplets (HepG2 cells): +
- Increase in ATGL level (ATGL): +

Structure (SMILES): COCCn1cnc2ccc(NC(=O)Nc3cccc(C(=O)NC4CCCCC4)c3)cc2c1=O [Compound 15, N-cyclohexyl-3-(3-(3-(2-methoxyethyl)-4-oxo-3,4-dihydroquinazolin-6-yl)ureido)benzamide]
- Reduction in Lipid Droplets (HepG2 cells): +
- Increase in ATGL level (ATGL): ++++

Structure (SMILES): CC(=O)c1cccc(NC(=O)Nc2ccc3ncn(-c4ccccn4)c(=O)c3c2)c1 [Compound 159, 1-(3-acetylphenyl)-3-(4-oxo-3-(pyridin-2-yl)-3,4-dihydroquinazolin-6-yl)urea]
- Number of lipid droplets (HepG2 cells): reduction in lipid droplets
- Increase in ATGL level (ATGL): +
- ATGL level in HepG2 cells (ATGL): some sort of increase in ATGL level

Structure (SMILES): CCc1cccc(NC(=O)Nc2ccc3ncn(CCOC)c(=O)c3c2)c1 [Compound 13, 1-(3-ethylphenyl)-3-(3-(2-methoxyethyl)-4-oxo-3,4-dihydroquinazolin-6-yl)urea]
- Reduction in Lipid Droplets (HepG2 cells): +
- Increase in ATGL level (ATGL): +

Structure (SMILES): COCCn1cnc2ccc(NC(=O)Nc3ccc(F)cc3)cc2c1=O [Compound 35, 1-(4-fluorophenyl)-3-(3-(2-methoxyethyl)-4-oxo-3,4-dihydroquinazolin-6-yl)urea]
- Reduction in Lipid Droplets (HepG2 cells): +
- Increase in ATGL level (ATGL): +

Structure (SMILES): CC(=O)c1cccc(NC(=O)Nc2ccc3ncn(-c4cccnc4)c(=O)c3c2)c1 [Compound 155, 1-(3-acetylphenyl)-3-(4-oxo-3-(pyridin-3-yl)-3,4-dihydroquinazolin-6-yl)urea]
- Number of lipid droplets (HepG2 cells): reduction in lipid droplets
- Reduction in Lipid Droplets (HepG2 cells): +++
- Increase in ATGL level (ATGL): ++
- ATGL level in HepG2 cells (ATGL): some sort of increase in ATGL level

Structure (SMILES): COCCn1cnc2ccc(NC(=O)Nc3ccc(C(=O)N4CCCC4)cc3)cc2c1=O [Compound 20, 1-(3-(2-methoxyethyl)-4-oxo-3,4-dihydroquinazolin-6-yl)-3-(4-(pyrrolidine-1-carbonyl)phenyl)urea]
- Reduction in Lipid Droplets (HepG2 cells): ++
- Increase in ATGL level (ATGL): ++
- ATGL level in HepG2 cells (ATGL): ability to increase ATGL level

Structure (SMILES): COCCn1cnc2ccc(NC(=O)Nc3ccc(F)c(Cl)c3)cc2c1=O [Compound 36, 1-(3-chloro-4-fluorophenyl)-3-(3-(2-methoxyethyl)-4-oxo-3,4-dihydroquinazolin-6-yl)urea]
- Reduction in Lipid Droplets (HepG2 cells): +
- Increase in ATGL level (ATGL): +++

Structure (SMILES): COCCn1cnc2cc(NC(=O)Nc3ccc(C(C)=O)cc3)ccc2c1=O [Compound 193, 1-(4-acetylphenyl)-3-(3-(2-methoxyethyl)-4-oxo-3,4-dihydroquinazolin-7-yl)urea]
- Reduction in Lipid Droplets (HepG2 cells): +
- Increase in ATGL level (ATGL): +

Structure (SMILES): COCCn1cnc2ccc(NC(=O)Nc3cccc(C(=O)N4CCOCC4)c3)cc2c1=O [Compound 19, 1-(3-(2-methoxyethyl)-4-oxo-3,4-dihydroquinazolin-6-yl)-3-(3-(morpholine-4-carbonyl)phenyl)urea]
- Reduction in Lipid Droplets (HepG2 cells): ++
- Increase in ATGL level (ATGL): +
- ATGL level in HepG2 cells (ATGL): ability to increase ATGL level

Structure (SMILES): COCCn1cnc2ccc(NC(=O)Nc3cccc([N+](=O)[O-])c3)cc2c1=O [Compound 8, 1-(3-(2-methoxyethyl)-4-oxo-3,4-dihydroquinazolin-6-yl)-3-(3-nitrophenyl)urea]
- Reduction in Lipid Droplets (HepG2 cells): ++
- Increase in ATGL level (ATGL): +

Structure (SMILES): COCCn1cnc2ccc(NC(=O)Nc3ccccc3)cc2c1=O [Compound 5, 1-(3-(2-methoxyethyl)-4-oxo-3,4-dihydroquinazolin-6-yl)-3-phenylurea]
- Reduction in Lipid Droplets (HepG2 cells): ++
- Increase in ATGL level (ATGL): ++

Structure (SMILES): COCCn1cnc2ccc(NC(=O)Nc3ccc(OC(F)(F)F)cc3)cc2c1=O [Compound 37, 1-(3-(2-methoxyethyl)-4-oxo-3,4-dihydroquinazolin-6-yl)-3-(4-(trifluoromethoxy)phenyl)urea]
- Reduction in Lipid Droplets (HepG2 cells): +
- Increase in ATGL level (ATGL): +

Structure (SMILES): COCCn1cnc2ccc(NC(=O)Nc3cccc(N(Cc4ccccc4)C(C)=O)c3)cc2c1=O [Compound 24, N-benzyl-N-(3-(3-(3-(2-methoxyethyl)-4-oxo-3,4-dihydroquinazolin-6-yl)ureido)phenyl)acetamide]
- Reduction in Lipid Droplets (HepG2 cells): +
- Increase in ATGL level (ATGL): ++++
- ATGL level in HepG2 cells (ATGL): increased ATGL level

Structure (SMILES): COCCn1c(-c2ccc(OC)cc2)nc2ccc(NC(=O)Nc3cccc(C(C)=O)c3)cc2c1=O [Compound 119, 1-(3-acetylphenyl)-3-(3-(2-methoxyethyl)-2-(4-methoxyphenyl)-4-oxo-3,4-dihydroquinazolin-6-yl)urea]
- Reduction in Lipid Droplets (HepG2 cells): +
- Increase in ATGL level (ATGL): +

Structure (SMILES): CCOC(=O)Cn1cnc2ccc(NC(=O)Nc3ccc(OC(F)(F)F)cc3)cc2c1=O [Compound 84, ethyl 2-(4-oxo-6-(3-(4-(trifluoromethoxy)phenyl)ureido)quinazolin-3 (4H)-yl)acetate]
- Reduction in Lipid Droplets (HepG2 cells): +++
- Increase in ATGL level (ATGL): ++

Structure (SMILES): COc1cccc(-n2cnc3ccc(NC(=O)Nc4cccc(C(C)=O)c4)cc3c2=O)c1 [Compound 103, 1-(3-acetylphenyl)-3-(3-(3-methoxyphenyl)-4-oxo-3,4-dihydroquinazolin-6-yl)urea]
- Number of lipid droplets (HepG2 cells): reduction in lipid droplets
- Reduction in Lipid Droplets (HepG2 cells): +
- Increase in ATGL level (ATGL): +
- ATGL level in HepG2 cells (ATGL): some sort of increase in ATGL level
